Assay results taken from patent publication US6036941A, “Fluorogenic substrates for diagnosis and photodynamic treatment of tumors” (Consiglio Nazionale Delle Ricerche, priority 1995, dated 2000).

Columns and labels:
[1] = test system: POGB cells (bronchial microcytoma); test: Photosensitizer accumulation in drug-resistant versus sensitive POGB cells; assay type: cell-based, human; details: Rose Bengal acetate 5×10^-5 to 10^-7 M, Photofrin 10^-5 M, fluorescence intensity
Protocol: (§1) Tests were also performed on cell lines derived from human tumours: POGB, from bronchial microcytoma, and IGROV, from ovarian carcinoma. In particular, for each line a comparison was made between the cells sensitive and resistant to chemotherapeutic agents. […] Results related to Rose Bengal treatment were compared with those obtained with Photofrin®, a well-establishes photosensitizer.
(§2) The cells were treated with Rose Bengal acetate at doses between 5×10^-5 and 10^-7 M, and with 10^-5 M Photofrin®. The intracellular accumulation of photosensitizer was evaluated in terms of fluorescence intensity. Giving a value of 100 to the photosensitizer amount present in each sensitive cell line, the amount of photosensitizer retained in the corresponding resistant cell line is 100% and 85% for Photofrin and 170% and 120% for Rose Bengal, in IGROV and POGB respectively. A more evident difference of the accumulation capacity between Photofrin and Rose Bengal can be observed in the case of B16 cells, a line derived from mouse melanoma. In this case the amount of Photofrin® accumulated in resistant cells is about 65% of that in sensitive ones, while the amount of Rose Bengal is about 120%.

rat glioma (C6) cells [2] = test: Intracellular accumulation and hydrolysis kinetics in C6 cell cultures; assay type: cell-based
Protocol: Evaluations of the kinetics of intracellular accumulation of Rose Bengal acetate were performed on cultures of an established cell line of rat glioma (C6) which grows as a monolayer. This cell line is widely used for pharmaco-kinetic studies of fluorescent substances with photosensitisation activity by virtue of its rapid proliferation activity and the possibility of modifying the physiological activities of the cells.
It is particularly important that, principally in short-term treatments, a continuous increase of intracellular Rose Bengal is recorded in the cells treated with the acetylated species, even when the cells are transferred into a medium devoid of this substance. This can easily be interpreted in terms of the balance between the processes of incorporation and hydrolysis. Since the process of incorporation is rapider than that of hydrolysis, inside the cells an accumulation is created of hydrolysable substance on which the enzyme can continue to effect its action through time.
Further, it is interesting to note that the kinetics of hydrolysis of Rose Bengal acetate is accelerated by the cellular environment: the Km passes from about 10^-3 M in conditions of hydrolysis in solution to about 10^-6 M in the cells.

[3] = test system: IGROV cells (ovarian carcinoma); test: Photosensitizer accumulation in drug-resistant versus sensitive IGROV cells; assay type: cell-based, human; details: Rose Bengal acetate 5×10^-5 to 10^-7 M, Photofrin 10^-5 M, fluorescence intensity
Protocol: as §1, §2

[4] = test system: purified esterase enzyme of pig liver; test: Enzyme hydrolysis by purified pig liver esterase, followed fluorometrically; assay type: biochemical; details: hydrolysis in solution, phosphate buffer 0.2 M pH 6.85, 20° C., esterase 25 U/ml; read-out: enzyme hydrolysis constant Km
Protocol: To the solution of Rose Bengal acetate 3×10^-5 M in phosphate buffer 0.2 M (pH 6.85) was added the purified esterase enzyme of pig liver (Sigma Chem, Co., GB) at the final concentration of 25 U/ml. The reaction was performed at room temperature (20° C.) and the formation of the product was measured fluorometrically (excitation 525 nm, emission 565 nm). In a second group of experiments, to the reaction solution was added human albumin (Sigma Chem. Co, GB) at the concentration of 0.1 mg/ml, better to simulate the conditions of hydrophobicity to be met in the cells. In these conditions, the appearance of the fluorescence was accelerated.
The kinetics of hydrolysis was followed by determining the intensity of fluorescence at 565 nm corresponding to the peak of emission of Rose Bengal. Examples of curves of hydrolysis kinetics are shown in FIG. 3 in which the curve (a) represents the intensity of fluorescence in time of a solution of Rose Bengal acetate subjected to hydrolysis in the presence of albumin with esterase, and the curve (b) represent the intensity of fluorescence of the solution of Rose Bengal acetate with albumin, in the absence of esterase, at the concentration of 3×10^-5 M.

rat glioma (C6) cells [5] = test: Phototoxicity after irradiation at 540±5 nm, cell count 24 h later; assay type: cell-based; details: 2 mw/cm^2, up to 2.4 J, compared with Rose Bengal (FIG. 5)
From the text: The cells treated with Rose Bengal or with Rose Bengal acetate as described above were submitted to irradiation at 540±5 nm by a Xe 75 W lamp and an interference filter.
Irradiation was realised with a power of 2 mw/cm^2 for various times until the administration of a maximum dose of 2.4 J, in accordance with the protocols normally used in tests of phototoxicity. The irradiation was effected in HBSS buffer (Hank's Balanced Salt Solution, J. H. Hanks and R. E. Wallace, Proc. Natl. Exp. Biol. Med 71, 196, 1949) in the absence of the drug in the culture medium to avoid secondary effects. Twenty-four hours after irradiation the cells adhering to the slide on which they had been grown were counted. The expression of phototoxicity was defined as the ratio between the number of cells present after the treatment and those counted on the untreated controls. […] This effect relates directly to the quantity of fluorescent substance with photosensitisation activity produced by the enzyme activity, evaluated as fluorescence intensity at 580 nm (FIG. 4).

[6] = test system: lymphocytes and granulocytes; test: Hydrolysis activity in white blood cells on smears; assay type: cell-based
[7] = Rose Bengal in blood samples of treated mice; assay type: in vivo; details: Swiss mice treated with 8 mg/kg
Protocol: Considering the possible systemic use of Rose Bengal acetate, the effect was evaluated of the serum esterase activity on the hydrolysis kinetics of the fluorogenic substrate. The esterase activity of the blood can induce an extracellular hydrolysis of Rose Bengal acetate. The kinetics, however, of this hydrolysis is slow enough to permit the cellular compartment to accumulate and hydrolyse the Rose Bengal acetate according to the intracellular esterase activity. In any case the hydrolysed Rose Bengal is quickly eliminated from the blood.

[8] = test system: B16 cells (mouse melanoma); test: Photosensitizer accumulation in drug-resistant versus sensitive B16 cells; assay type: cell-based
Protocol: as §2

[9] = test system: normal fibroblast line and sarcoma-derived cell line of Galliera rats; test: Intracellular drug accumulation, normal fibroblasts versus sarcoma-derived cells; assay type: cell-based, rat
Protocol: A comparison of intracellular drug accumulation was made between normal and tumour cells. As a model, a normal fibroblast line from embryos (6-10 days) of Galliera strain rats, and a stabilised cell line derived from sarcoma spontaneously growing in syngeneic Galliera rats, were used. After incubation with Rose Bengal acetate at a concentration of 5×10^-6 M for 2 hours, a ratio of intracellular photosensitizer concentration of about 16 was measured between normal and transformed cells, in terms of fluorescence intensity at 580 nm. The ratio of the esterase activity in the two cell lines was found less than the ratio shown by the photosensitizer: this can be explained by the fact that the Rose Bengal produced by the enzyme activity is a polar compound. It must be considered that in this form Rose Bengal requires an active transport mechanism to be released (E. Prosperi, A. C. Croce et al. Cytometry, 7, 70-75, 1986), and that the tumour cells are characterised by an impaired metabolic condition (J. Szollosi, P. Kertai et al. J. Histochem. Cytochem. 29, 503-510, 1982), that enhances the photosensitizer accumulation.
The same cell lines, treated with the most commonly used photosensitizer, Photofrin®, at the concentration of 2×10^-5 M for a time of 2 hours yielded a ratio value of about 8 (FIG. 6).

rat glioma (C6) cells [10] = test: Cellular vitality tests (trypan blue and fluorescein diacetate methods); assay type: cell-based; details: incubation for 4 h at concentrations up to 1×10^-4 M, no irradiation
From the text: The hydrophobicity of the intracellular environment would therefore seem to create the structural condition that favours the action of the enzyme. […] The finding relative to Rose Bengal agrees with the literature (R. P. G. Feenstra and S. C. G. Tseng, Ophthalmology, 99 605, 1992).

| Compound | amount of photosensitizer retained in resistant cell line (sensitive line = 100) [1] | Km (rat glioma (C6) cells [2]) | amount of photosensitizer retained in resistant cell line (sensitive line = 100) [3] | Km [4] | phototoxicity (cell survival) (rat glioma (C6) cells [5]) | hydrolysis activity in lymphocytes, less than in granulocytes [6] | Rose Bengal in the blood [7] | amount accumulated in resistant cells relative to sensitive ones [8] | ratio of intracellular photosensitizer concentration between normal and transformed cells ([9]; 2 h, 5 µM) | cell mortality (rat glioma (C6) cells [10]) | ratio of intracellular photosensitizer concentration between normal and transformed cells ([9]; 2×10^-5 M for 2 hours) |
| --- | --- | --- | --- | --- | --- | --- | --- | --- | --- | --- | --- |
| CC(=O)Oc1c(I)cc2c(-c3c(Cl)c(Cl)c(Cl)c(Cl)c3C(=O)O)c3cc(I)c(=O)c(I)c-3oc2c1I [Rose Bengal acetate] | 120% | ~1 µM | 170% | ~1000 µM | strong phototoxic effect | 40% | do not present appreciable quantities | about 120% | about 16 | no significant cell mortality | – |
| O=C(O)c1c(Cl)c(Cl)c(Cl)c(Cl)c1-c1c2cc(I)c(=O)c(I)c-2oc2c(I)c(O)c(I)cc12 [Rose Bengal, reference compound] | – | – | – | – | – | – | – | – | – | no significant cell mortality | – |
| CC(=O)Oc1ccc2c(c1)Oc1cc(OC(C)=O)ccc1C21OC(=O)c2ccccc21 [diacetate fluorescein, reference compound] | – | – | – | 5 µM | – | – | – | – | – | – | – |
| Photofrin® [reference compound] | 85% | – | 100% | – | – | – | – | about 65% | – | – | about 8 |
